Values quoted from earlier work, collected in patent US9795640B2, “Controlling appetite, promoting weight loss, reducing body fat, and/or improving glucose tolerance” (VANDERBILT UNIVERSITY, priority 2011, dated 2017).

Conditions: intraperitoneal administration; for obesity: animals fed a high-fat diet

SMILES: CCCCCCCC/C=C\CCCCCCCC(=O)NCCO [OEA, N-oleoyl-ethanolamide]
- food intake: markedly reduces
- obesity: markedly reduces

SMILES: CCCCCCCCCCCCCCCCCC(=O)NCCO [SEA, N-stearoyl-ethanolamide]
- food intake: markedly reduces
- obesity: markedly reduces
